{"source": "patent US9204640B2", "about": "“2-acyloxy-pyrrolin-4-ones” (BAYER INTELLECTUAL PROPERTY GMBH, priority 2011, dated 2015)", "format_in_all_cases": "in vivo", "key": {"Echinocloa crus-galli": {"test_system": "Echinocloa crus-galli", "experiment": "Herbicidal post-emergence action, ECHCG", "details": "20 g/ha", "in_short": "(§1)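 Weeds sown in sandy loam, grown in greenhouse 2–3 weeks and treated post-emergence at one-leaf stage (or BBCH 10–13, 5–10 cm) with WP/EC formulations sprayed at various dosages (600–800 l/ha water, 0.1–0.2% wetting agent). Visual rating after about 3 weeks as % activity versus untreated (100% = dead).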"}, "Myzus persicae [1]": {"test_system": "Myzus persicae", "experiment": "Myzus persicae test; hydroponic treatment (MYZUPE Sys)", "details": "20 ppm, 6dat", "protocol": "Myzus Persicae Test; Hydroponic Treatment (MYZUPE Sys)\nTo produce a suitable preparation of active compound, 1 part by weight of active compound is mixed with the stated amounts of solvent and emulsifier, and the concentrate is diluted with water to the desired concentration.\nThe active compound preparation is mixed with water. The stated concentration refers to the amount of active compound per volume unit of water (mg/l=ppm). The treated water is filled into vessels containing a pea plant (Pisum sativum), and the plant is the infested with the green peach aphid (Myzus persicae).\nAfter the desired period of time, the kill in % is determined 100% means that all of the aphids have been killed; 0% means that none of the aphids have been killed."}, "Myzus persicae [2]": {"test_system": "Myzus persicae", "experiment": "Myzus persicae test (MYZUPE Tau), leaf dipping", "details": "20 ppm, 6dat", "protocol": "Myzus Persicae Test (MYZUPE Tau) To produce a suitable preparation of active compound, 1 part by weight of active compound is mixed with the stated amount of solvent and emulsifier, and the concentrate is diluted with emulsifier-containing water to the desired concentration. Cabbage leaves (Brassica oleracea) which are heavily infested by the green peach aphid (Myzus persicae) are treated by dipping into the active compound preparation of the desired concentration. After the desired period of time, the kill in % is determined. 100% means that all of the aphids have been killed; 0% means that none of the aphids have been killed."}, "Setaria viridis": {"test_system": "Setaria viridis", "experiment": "Herbicidal pre-emergence action, SETVI", "details": "20 g/ha", "from_the_text": "1. Herbicidal Pre-Emergence Action\n• Seeds of monocotyledonous and dicotyledonous weed plants and crop plants are placed in wood-fiber pots in sandy loam and covered with soil. The test compounds, formulated in the form of wettable powders (WP), are then, as an aqueous suspension with a water application rate of 600 l/ha (converted), with 0.2% of wetting agent added, applied at various dosages to the surface of the covering soil. • After the treatment, the pots are placed in a greenhouse and kept under good growth conditions for the test plants. The visual assessment of the damage to the test plants is carried out after a trial period of about 3 weeks by comparison with untreated controls (herbicidal activity in percent: 100% activity=the plants have died, 0% activity=like control plants). • In addition to the compounds mentioned above, the following compounds show an activity of 90-100% against Alopecurus myosuroides, Digitaria sanguinalis, Echinocloa crus-galli, Lolium multiflorum, Setaria viridis and Sorghum halapense when applied by the pre-emergence method at 320 g/ha of a.i.: I-a-2, I-a-10, I-a-11, I-a-12.\n1. Herbicidal Pre-Emergence Action (Pre)\n• Seeds of monocotyledonous and dicotyledonous weed plants and crop plants are placed in wood-fiber pots in sandy loam and covered with soil. The test compounds, formulated in the form of wettable powders (WP) or emulsion concentrates (EC), are then, as an aqueous suspension with a water application rate of 600-800 l/ha (converted), with 0.1-0.2% of wetting agent added, applied at various dosages to the surface of the covering soil. • After the treatment, the pots are placed in a greenhouse and kept under good growth conditions for the test plants. […] Herbicidal Post-Emergence Action (Post) • Seeds of monocotyledonous and dicotyledonous weed and crop plants are placed in sandy loam in wood-fiber pots, covered with soil and cultivated in a greenhouse under good growth conditions. 2-3 weeks (stages 10-13 according to the BBCH scale) after sowing, the test plants are treated at a height of 5-10 cm. The test compounds, formulated as wettable powders (WP) or emulsion concentrates (EC), are then, with a water application rate of 600-800 l/ha (converted), with 0.1-0.2% of wetting agent added, sprayed at various dosages onto the green parts of the plants.\nAVEFA: Avena fatua LOLMU: Lolium multiflorum SETVI: Setaria viridis CHEAL: Chenopodium album VIOTR: Viola tricolor VERPE: Veronica persica ORYSA: Oryza sativa TRZAS: Triticum aestivum ZEAMX: Zea mays ALOMY: Alopecurus myosuroides DIGSA: Digitaria sanguinalis ECHCG: Echinocloa crus-galli SORHA: Sorghum halepense AVESA: Avena sativa AMARE: Amaranthus retroflexus SINAL: Sinapis alba STEME: Stellaria media"}, "Alopecurus myosuroides": {"test_system": "Alopecurus myosuroides", "experiment": "Herbicidal post-emergence action, ALOMY", "details": "20 g/ha", "in_short": "as §1"}, "Phaedon cochleariae": {"test_system": "Phaedon cochleariae", "experiment": "Phaedon test (PHAECO spray treatment)", "details": "application rate 500 g/ha, after 7 days, Chinese cabbage leaf discs", "in_short": "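Chinese cabbage (Brassica pekinensis) leaf discs sprayed with compound diluted in emulsifier-containing water to the desired concentration, then infested with mustard beetle larvae once dry. Mortality in % scored after 7 days or after the desired period (100% = all larvae dead, 0% = none dead).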"}, "Digitaria sanguinalis": {"test_system": "Digitaria sanguinalis", "experiment": "Herbicidal post-emergence action, DIGSA", "details": "20 g/ha", "in_short": "as §1"}}, "data": [{"compound": "CCOC(=O)OC1=C(c2c(C)cc(I)cc2CC)C(=O)C2(CCC(OC)CC2)N1", "note": "(mixture of isomers) [I-b-2]", "values": [{"measurement": "% Activity ECHCG", "setting": "Echinocloa crus-galli", "value": 70, "unit": "%"}, {"measurement": "% Activity MYZUPE sys", "setting": "Myzus persicae [1]", "value": 99, "unit": "%"}, {"measurement": "% Activity MYZUPE tau", "setting": "Myzus persicae [2]", "value": 90, "unit": "%"}, {"measurement": "% Activity SETVI", "setting": "Setaria viridis", "value": 70, "unit": "%"}, {"measurement": "% Activity ALOMY", "setting": "Alopecurus myosuroides", "value": 90, "unit": "%"}, {"measurement": "effect in % (beetle larvae killed)", "setting": "Phaedon cochleariae", "value": 83, "unit": "%"}, {"measurement": "% Activity DIGSA", "setting": "Digitaria sanguinalis", "value": 90, "unit": "%"}]}]}
